Results: patent US20260355191A1, “PAN-RAS INHIBITOR COMPOUND” (ADLAI NORTYE BIOPHARMA CO., LTD., priority 2024, published 2026)

What was measured:
HCT116 = test: In vitro cell proliferation inhibition assay (CellTiter-Glo), HCT116; assay type: cell-based; settings: HCT116, KRAS (p.G13D), 72 h; read-out: IC50, antiproliferative activity
Protocol: (§1) Due to the diversity of RAS mutations, and in order to evaluate the activity of the compounds in different RAS mutant cell lines, we selected cell lines with KRAS^G12D, KRAS^G12V, KRAS^G12c, NRAS^q61L, KRAS^G13D, KRAS^G12R, and KRAS^WT mutations (see the table below for in vitro activity evaluation and screening of the compounds.
(§2) According to the doubling time of different cell lines, different numbers of cells (1000-5000 cells/well) were seeded into 96-well plates containing 180 μL of the corresponding culture medium, and incubated overnight in a cell incubator at 37 °C with 5% C02. On the following day, the test compounds were pre-diluted in the culture medium in a 3-fold serial dilution series, with the highest concentration being […], resulting in 10 concentration gradients in total. Subsequently, 20 μL of culture medium containing the compounds at different concentrations was added to the cells in the 96-well plates, ensuring a final compound concentration of up to 10 μM, with 10 concentrations in 3-fold dilution. After co-incubation of the cells with the compounds for 72 h, the 96-well plates were removed from the incubator and equilibrated at room temperature for 30 min. Then, 25 μL of CellTiter-Glo® Reagent was added to each well and mixed thoroughly, followed by incubation at room temperature for 10 min. Subsequently, 100 μL of the samples was transferred to white 96-well plates (OptiPlate™-96, PerkinElmer), and […] signal values were read using a multifunctional microplate reader (SpectraMax i3x, Molecular Devices). The signal values were then normalized, and curve fitting was performed using a four-parameter logistic regression equation to calculate the half maximal inhibitory concentration (IC50) of the compounds against the cell lines.

[1] = target: ternary complex comprising RAS and CypA; KRAS^WT (Homo sapiens, UniProt P01116+P62937); test: Ternary complex binding assay (BLI), KRAS WT; settings: GMPPNP-loaded KRAS^WT, fixed concentration of CypA, pH 7.4, read-out: KD2 (ternary complex equilibrium dissociation constant)
Protocol: (§3) To evaluate the ability of the test compounds to induce the formation of a ternary complex comprising RAS and CypA, we employed a Bio-layer Interferometry (BLI) method (Octet R8) to monitor the binding kinetics among the compounds, RAS, and CypA, and to calculate the affinity of the ternary complex. GMPPNP was first incubated with RAS protein to load GMPPNP onto RAS. His-tagged RAS proteins with different mutations were then immobilized on NTA sensors, followed by baseline equilibration for 120 seconds in the assay buffer (20 mM HEPES, pH 7.4, 150 mM NaCl, 5 mM MgCl2, 1 mM TCEP, 5 μM GMPPNP, 0.01% Tween 20). The sensors were subsequently exposed to buffer containing various concentrations of the compounds and a fixed concentration of CypA, and the association phase of ternary complex formation was monitored in real time. Once binding reached a plateau, the sensors were transferred to compound- and CypA-free buffer to measure the dissociation phase. To ensure accuracy, DMSO normalization was performed, buffer composition was optimized to reduce non-specific binding, and both negative and positive controls were employed to verify assay specificity. Data were processed using Octet Analysis Studio 13.0, analyzed using a 1:1 binding model, and the association rate constant (ka), dissociation rate constant (kdis), and equilibrium dissociation constant (KD2) were calculated.

SW480 = test: In vitro cell proliferation inhibition assay (CellTiter-Glo), SW480; assay type: cell-based; settings: SW480, KRAS (p.G12V), 72 h; read-out: IC50, antiproliferative activity
Protocol: as §1, §2

cyclophilin A (CypA) = target: T1, cyclophilin A (CypA) (Homo sapiens, UniProt P62937); test: Binary complex binding assay (BLI); settings: His-tagged CypA, pH 7.4, 1:1 binding model; for Kd: read-out: KD1 (binary complex equilibrium dissociation constant); for kon: read-out: ka (association rate constant); for koff: read-out: kdis (dissociation rate constant)
T1 construct: purchased R&D 3589-CAB
Protocol: To evaluate the binding ability of the test compounds to cyclophilin A (CypA), we employed a Bio-layer Interferometry (BLI) method (Octet R8) to monitor the binding kinetics between the compounds and CypA, and to calculate the affinity of the binary complex. His-tagged CypA protein (3589-CAB, R&D) was first immobilized on an NTA sensor, followed by baseline equilibration for 120 seconds in the assay buffer (20 mM HEPES, pH 7.4, 150 mM NaCl, 5 mM MgCl2, 1 mM TCEP, 0.01% Tween 20). The sensor was then exposed to buffer solutions containing different concentrations of the compounds to monitor the association process in real time. When the high-concentration compound binding reached a plateau, the sensor was transferred to compound-free buffer to measure the dissociation process. To ensure data accuracy, DMSO normalization was performed, non-specific binding was minimized by buffer optimization, and negative and positive controls were set to verify assay specificity. Data were processed using Octet Analysis Studio 13.0, analyzed using a 1:1 binding model, and the association rate constant (ka), dissociation rate constant (kdis), and equilibrium dissociation constant (KD1) were calculated.

AsPC-1 = test: In vitro cell proliferation inhibition assay (CellTiter-Glo), AsPC-1; assay type: cell-based; settings: AsPC-1, KRAS (p.G12D), 72 h; read-out: IC50, antiproliferative activity
Protocol: as §1, §2

MV411 = test: In vitro cell proliferation inhibition assay (CellTiter-Glo), MV411; assay type: cell-based; settings: MV411, KRAS wild type, 72 h; read-out: IC50, antiproliferative activity
Protocol: as §2

H358 = test: In vitro cell proliferation inhibition assay (CellTiter-Glo), H358; assay type: cell-based; settings: H358, KRAS (p.G12C), 72 h; read-out: IC50, antiproliferative activity
Protocol: as §1, §2

PSN1 = test: In vitro cell proliferation inhibition assay (CellTiter-Glo), PSN1; assay type: cell-based; settings: PSN1, KRAS (p.G12R), 72 h; read-out: IC50, antiproliferative activity
Protocol: as §1, §2

[2] = target: ternary complex comprising RAS and CypA; KRAS^G12D (Homo sapiens, UniProt P01116+P62937, G12D); test: Ternary complex binding assay (BLI), KRAS G12D; settings: GMPPNP-loaded KRAS^G12D, fixed concentration of CypA, pH 7.4, read-out: KD2 (ternary complex equilibrium dissociation constant)
Protocol: as §3

[3] = target: ternary complex comprising RAS and CypA; KRAS^G12V (Homo sapiens, UniProt P01116+P62937, G12V); test: Ternary complex binding assay (BLI), KRAS G12V; settings: GMPPNP-loaded KRAS^G12V, fixed concentration of CypA, pH 7.4, read-out: KD2 (ternary complex equilibrium dissociation constant)
Protocol: as §3

HepG2 = test: In vitro cell proliferation inhibition assay (CellTiter-Glo), HepG2; assay type: cell-based; settings: HepG2, NRAS (p.Q61L), 72 h; read-out: IC50, antiproliferative activity
Protocol: as §1, §2

ternary complex comprising RAS and CypA; KRAS^G12D, sequence (P01116 1-188 isoform P01116-2 G12D): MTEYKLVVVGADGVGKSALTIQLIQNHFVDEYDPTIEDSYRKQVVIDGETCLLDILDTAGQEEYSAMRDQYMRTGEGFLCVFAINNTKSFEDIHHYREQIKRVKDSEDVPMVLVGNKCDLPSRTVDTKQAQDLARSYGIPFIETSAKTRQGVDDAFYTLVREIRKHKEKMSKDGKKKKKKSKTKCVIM
ternary complex comprising RAS and CypA; KRAS^G12D, sequence (P62937 whole entry): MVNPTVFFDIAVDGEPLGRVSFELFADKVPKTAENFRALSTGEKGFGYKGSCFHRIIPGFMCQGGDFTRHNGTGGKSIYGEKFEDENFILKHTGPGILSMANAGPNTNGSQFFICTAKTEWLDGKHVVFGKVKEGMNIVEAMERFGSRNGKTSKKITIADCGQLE
T1 sequence (P62937 whole entry): as above
ternary complex comprising RAS and CypA; KRAS^G12V, sequence (P01116 1-188 isoform P01116-2 G12V): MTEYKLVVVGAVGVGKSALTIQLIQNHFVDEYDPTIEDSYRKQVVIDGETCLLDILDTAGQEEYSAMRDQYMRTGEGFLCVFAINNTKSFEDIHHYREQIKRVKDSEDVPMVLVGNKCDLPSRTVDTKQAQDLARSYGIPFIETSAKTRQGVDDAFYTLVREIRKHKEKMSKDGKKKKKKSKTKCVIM
ternary complex comprising RAS and CypA; KRAS^G12V, sequence (P62937 whole entry): as the sequence (P62937 whole entry) above
ternary complex comprising RAS and CypA; KRAS^WT, sequence (P01116 1-188 isoform P01116-2): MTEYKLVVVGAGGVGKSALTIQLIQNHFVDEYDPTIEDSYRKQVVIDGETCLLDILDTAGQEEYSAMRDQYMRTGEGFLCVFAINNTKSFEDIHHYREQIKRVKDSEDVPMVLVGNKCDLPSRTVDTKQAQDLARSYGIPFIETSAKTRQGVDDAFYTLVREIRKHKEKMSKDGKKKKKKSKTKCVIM
ternary complex comprising RAS and CypA; KRAS^WT, sequence (P62937 whole entry): as the sequence (P62937 whole entry) above

Row | IC50 (HCT116) [pM] | Kd [1] [pM] | IC50 (SW480) [pM] | Kd (cyclophilin A (CypA)) [pM] | kon (cyclophilin A (CypA)) [M⁻¹ s⁻¹] | koff (cyclophilin A (CypA)) [s⁻¹] | IC50 (AsPC-1) [pM] | IC50 (MV411) [pM] | IC50 (H358) [pM] | Kd [2] [pM] | Kd [3] [pM] | IC50 (HepG2) [pM] | SMILES | IC50 (PSN1) [pM]
1 | 2800 | 27000 | 520 | 810 | 150000 | 0.00012 | 210 | 350 | 1 | 43000 | 25000 | 60 | CCn1c(-c2cc(-c3nc(C4CCN(C5COC5)CC4)n(C)n3)cnc2[C@H](C)OC)c2c3cc(ccc31)-c1csc(n1)C[C@H](NC(=O)[C@H]1[C@H](C)[C@@H]1C)C(=O)N1CCC[C@H](N1)C(=O)OCC(C)(C)C2 (atropisomer, axis not shown) [Compound 4, (1r,2R,3S)—N-((6^3S,4S,Z)-1^1-ethyl-1^2-(2-((S)-1-methoxyethyl)-5-(1-methyl-5-(1-(oxetan-3-yl)piperidin-4-yl)-1H-1,2,4-triazol-3-yl)pyridin-3-yl)-10,10-dimethyl-5,7-dioxo-6^1,6^2,6^3,6^4,6^5,6^6-hexahydro-1^1H-8-oxa-2(4,2)-thiazola-1(5,3)-indola-6(1,3)-pyridazinacycloundecaphane-4-yl)-2,3-dimethylcyclopropane-1-carboxamide] | 70
2 | 20 | 17000 | 110 | 8600 | 200000 | 0.0017 | 80 | 660 | 34 | 27000 | 27000 | 660 | CO[C@@H](C)c1ncc(-c2nnc(C3CCN(C4COC4)CC3)o2)cc1-c1c2c3cc(ccc3n1CC(F)(F)F)-c1csc(n1)C[C@H](NC(=O)[C@H]1C[C@@H]1C)C(=O)N1CCC[C@H](N1)C(=O)OCC(C)(C)C2 (atropisomer, axis not shown) [Compound 5, (1S,2S)—N-((6^3S,4S,Z)-1^2-(2-((S)-1-methoxyethyl)-5-(5-(1-(oxetan-3-yl)piperidin-4-yl)-1,3,4-oxadiazol-2-yl)pyridin-3-yl)-10,10-dimethyl-5,7-dioxo-1^1-(2,2,2-trifluoroethyl)-6^1,6^2,6^3,6^4,6^5,6^6-hexahydro-1^1H-8-oxa-2(4,2)-thiazola-1(5,3)-indola-6(1,3)-pyridazinacycloundecaphane-4-yl)-2-methylcyclopropane-1-carboxamide] | 30
3 | 700 | – | 140 | 16000 | 230000 | 0.0037 | 30 | 490 | 4 | 19000 | – | 50 | CCn1c(-c2cc(-c3nnc(C4CCN(C5CN(C(C)C)C5)CC4)o3)cnc2[C@H](C)OC)c2c3cc(ccc31)-c1csc(n1)C[C@H](NC(=O)[C@H]1C[C@@H]1C)C(=O)N1CCC[C@H](N1)C(=O)OCC(C)(C)C2 (atropisomer, axis not shown) [Compound 7, (1S,2S)—N-((6^3S,4S,Z)-1^1-ethyl-1^2-(5-(5-(1-(1-isopropylazetidin-3-yl)piperidin-4-yl)-1,3,4-oxadiazol-2-yl)-2-((S)-1-methoxyethyl)pyridin-3-yl)-10,10-dimethyl-5,7-dioxo-6^1,6^2,6^3,6^4,6^5,6^6-hexahydro-1^1H-8-oxa-2(4,2)-thiazola-1(5,3)-indola-6(1,3)-pyridazinacycloundecaphane-4-yl)-2-methylcyclopropane-1-carboxamide] | 50
